Experimental data from patent publication US11976083B2, “Inhibitors of peptidylarginine deiminases” (Gilead Sciences, Inc., priority 2020, dated 2024).

molecular target: T1, human PAD4 (Homo sapiens, UniProt Q9UM07); experiment: In vitro PAD4 BAEE biochemical assay; conditions: BAEE substrate 3 mM, 5 nM PAD4, 2 mM calcium chloride; geometric mean of multiple experiments
T1 construct: human PAD4 (NM_012387), A2-P663, was PCR amplified; His-SUMO (N, cleaved yes); made in house; host or cells: E. coli BL21(DE3)
T1 sequence (Q9UM07 2-663): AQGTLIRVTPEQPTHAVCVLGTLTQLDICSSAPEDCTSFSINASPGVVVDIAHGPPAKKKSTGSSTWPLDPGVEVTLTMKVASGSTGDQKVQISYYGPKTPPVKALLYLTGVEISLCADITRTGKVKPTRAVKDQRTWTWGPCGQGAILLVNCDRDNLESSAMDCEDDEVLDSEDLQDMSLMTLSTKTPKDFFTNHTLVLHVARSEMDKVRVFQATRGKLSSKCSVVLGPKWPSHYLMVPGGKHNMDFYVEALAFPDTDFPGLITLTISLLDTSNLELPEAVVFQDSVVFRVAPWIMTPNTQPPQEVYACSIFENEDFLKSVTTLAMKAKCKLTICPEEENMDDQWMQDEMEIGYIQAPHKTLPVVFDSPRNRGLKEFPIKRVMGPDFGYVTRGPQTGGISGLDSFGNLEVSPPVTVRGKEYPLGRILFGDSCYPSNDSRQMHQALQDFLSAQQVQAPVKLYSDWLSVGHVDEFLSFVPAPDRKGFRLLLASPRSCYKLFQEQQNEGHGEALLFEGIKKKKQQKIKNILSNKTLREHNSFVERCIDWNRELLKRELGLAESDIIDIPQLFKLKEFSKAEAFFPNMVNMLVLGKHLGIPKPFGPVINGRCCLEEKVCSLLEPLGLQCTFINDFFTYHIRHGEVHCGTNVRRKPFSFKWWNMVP
Procedure, shortened: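 Fluorescence read-out (ex 405/em 535 nm) of isoindole formed from ammonia, o-phthalaldehyde and DTT after EDTA stop. Reaction: 5 nM PAD4, 2 mM CaCl2, 3 mM BAEE, 2 h, 25 °C, after 30 min enzyme–compound preincubation. Normalised to BB-Cl-Amidine (50 µM) and DMSO controls.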

SMILES	IC50 [nM]
C[C@@H]1[C@H](N)CCCN1C(=O)c1cc(F)c2c(c1)nc(-c1cc3ccc4nc3n1CCCCCc1nc(Cl)ccc1C(=O)N[C@@H]4C)n2C1CC1 [Example 790, (2~{R})-17-[5-[(2~{R},3~{R})-3-amino-2-methyl-piperidine-1-carbonyl]-1-cyclopropyl-7-fluoro-benzimidazol-2-yl]-8-chloro-2-methyl-3,9,16,22-tetrazatetracyclo[14.5.2.0^ {5,10}.0^{19,23}]tricosa-1(21),5(10),6,8,17,19,22-heptaen-4-one]	23
COc1cc(C(=O)N2C[C@H](N)[C@@H]3CC[C@H]2C3)cc2nc(-c3cc4ccc5nc4n3CCCCCc3c(ccc(F)c3F)C(=O)N[C@@H]5C)n(C)c12 [Example 906, (2~{R})-17-[5-[(1~{S},4~{R}, 5~{R})-4-amino-2-azabicyclo [3.2.1]octane-2-carbonyl]-7-methoxy-1-methyl-benzimidazol-2-yl]-8,9-difluoro-2-methyl-3,16,22-triazatetracyclo [14.5.2.0^{5,10).0^{19,23}] tricosa-1(22),5(10),6,8,17, 19(23),20-heptaen-4-one]	55
COc1cc(C(=O)N2C[C@H](N)[C@@H]3CC[C@H]2C3)cc2nc(-c3cc4ccc5nc4n3CC(F)(F)CCC[C@]3(F)C[C@H]3C(=O)N[C@@H]5C)n(C3CC3)c12 [Example 769, (2~{R},5~{S},7~{S})-14-[5-[(1~{S},4~{R},5~{R})-4-amino-2-azabicyclo[3.2.1]octane-2-carbonyl]-1-cyclopropyl-7-methoxy-benzimidazol-2-yl]-7,11,11-trifluoro-2-methyl-3,13,19-triazatetracyclo [11.5.2.0^{5,7}.0^{16,20}] icosa-1(19),14,16(20), 17-tetraen-4-one]	13
COc1cc(C(=O)N2CC[C@@H](OC)[C@@H](N)C2)cc2nc(-c3cc4ccc5nc4n3CCCCCC[C@](F)(c3ccccn3)C(=O)N[C@@H]5C)n(C)c12 [Example 869, (8~{S},11~{R})-17-[5-[(3~ {S},4~{R})-3-amino-4-methoxy-piperidine-1-carbonyl]-7-methoxy-1-methyl-benzimidazol-2-yl]-8-fluoro-11-methyl-8-(2-pyridyl)-1,10,19-triazatricyclo[10.5.2.0^ {15,18}]nonadeca-12(19), 13,15(18),16-tetraen-9-one]	24
COc1cc(C(=O)N2[C@H]3CC[C@@H]2[C@H](N)C3)cc2nc(-c3cc4ccc5nc4n3C[C@H]3C[C@@H]3COCC(=O)N[C@@H]5C)c(C)n12 [Example 325, (3~{S},5~{S},11~{R})-17-[7-[(1~{R},2~{R},4~{S})-2-amino-7-azabicyclo[2.2.1]heptane-7-carbonyl]-5-methoxy-3-methyl-imidazo[1,2-a]pyridin-2-yl]-11-methyl-7-oxa-1,10,19-triazatetracyclo[10.5.2.0^{3,5}.0^{15,18}] nonadeca-12(19),13,15(18),16-tetraen-9-one]	16
COc1cc(C(=O)N2CC[C@@H](O)[C@@H](N)C2)cc2nc(-c3cc4ccc5nc4n3CCCCCc3cncc(F)c3C(=O)N[C@@H]5C)n(C)c12 [Example 660, (2~{R})-17-[5-[(3~{S},4~{R})-3-amino-4-hydroxy-piperidine-1-carbonyl]-7-methoxy-1-methyl-benzimidazol-2-yl]-6-fluoro-2-methyl-3,8,16,22-tetrazatetracyclo[14.5.2.0^ {5,10}.0^{19,23}] tricosa-1(22),5,7,9,17,19(23), 20-heptaen-4-one]	16
CCn1c(-c2cc3ccc4nc3n2CCCCCc2nc(Cl)ccc2C(=O)N[C@@H]4C)nc2cc(C(=O)N3C[C@H](N)[C@@H]4CC[C@H]3C4)cc(F)c21 [Example 939, (2~{R})-17-[5-[(1~{S),4~{R}, 5~{R})-4-amino-2-azabicyclo [3.2.1]octane-2-carbonyl]-1-ethyl-7-fluoro-benzimidazol-2-yl]-8-chloro-2-methyl-3,9,16,22-tetrazatetracyclo[14.5.2.0^ {5,10}.0^{19,23}]tricosa-1(22),5(10),6,8,17,19(23),20-heptaen-4-one]	44
C[C@H]1NC(=O)C(C)(C)CCCCCCn2c(-c3nc4cc(C(=O)N[C@H]5CNCC[C@@H]5F)c(C#N)cc4n3C)cc3ccc1nc32 [Example 596, 6-cyano-~{N}-[(3~{S},4~ {S})-4-fluoro-3-piperidyl]-1-methyl-2-[(11~{R})-8,8,11-trimethyl-9-oxo-1,10,19-triazatricyclo[10.5.2.0^ {15,18}]nonadeca-12,14,16,18-tetraen-17-yl] benzimidazole-5-carboxamide]	3580

Now from value to molecule:

IC50 [nM]	SMILES
82	COc1cc(C(=O)N[C@H]2CNCC[C@@H]2F)cc2nc(-c3cc4ccc5nc4n3CCCCC[C@@H]3CC[C@H]3C(=O)N[C@@H]5C)n(C)c12 (single isomer, unassigned) [Example 487, ˜{N}-[(3˜{S},4˜{S})-4-fluoro-3-piperidyl]-7-methoxy-1-methyl-2-[(2˜{R},5˜{R},8˜{R})-2-methyl-4-oxo-3,14,20-triazatetracyclo[12.5.2.0^{5,8}.0^{17,21}]henicosa-1(20),15,17(21),18-tetraen-15-yl]benzimidazole-5-carboxamide]
22	C[C@H]1NC(=O)[C@@H]2C[C@@]2(F)CCCC(F)(F)Cn2c(-c3nc4cc(C(=O)N5C[C@H](N)[C@@H]6CC[C@H]5C6)cc(F)c4n3C3CC3)cc3ccc1nc32 [Example 449, (2~{R},5~{S},7~{S})-14-[5-[(1~{S},4~{R},5~{R})-4-amino-2-azabicyclo[3.2.1]octane-2-carbonyl]-1-cyclopropyl-7-fluoro-benzimidazol-2-yl]-7,11,11-trifluoro-2-methyl-3,13,19-triazatetracyclo[11.5.2.0^{5,7}.0^{16,20}] icosa-1(19),14,16(20),17-tetraen-4-one]
48	CO[C@@H]1CCN(C(=O)c2cc(F)c3c(c2)nc(-c2cc4ccc5nc4n2CC(F)(F)CCC[C@@H]2C[C@H]2C(=O)N[C@@H]5C)n3C)C[C@@H]1N [Example 738, (2~{R},5~{R},7~{R})-14-[5-[(3~{S},4~{R})-3-amino-4-methoxy-piperidine-1-carbonyl]-7-fluoro-1-methyl-benzimidazol-2-yl]-11,11-difluoro-2-methyl-3,13,19-triazatetracyclo[11.5.2.0^ {5,7}.0^{16,20}] icosa-1(19),14,16(20), 17-tetraen-4-one]
22	C[C@H]1NC(=O)[C@@H]2C[C@H]2CCCC(F)(F)Cn2c(-c3nc4cc(C(=O)N5C[C@H]6CC[C@@H]5[C@@H]6N)cc(F)c4n3C3CC3)cc3ccc1nc32 [Example 646, (2~{R},5~{R},7~{R})-14-[5-[(1~{R},4~{R},7~{R})-7-amino-2-azabicyclo [2.2.1]heptane-2-carbonyl]-1-cyclopropyl-7-fluoro-benzimidazol-2-yl]-11,11-difluoro-2-methyl-3,13,19-triazatetracyclo [11.5.2.0^{5,7}.0^{16,20}] icosa-1(19),14,16(20), 17-tetraen-4-one]
33	C[C@H]1NC(=O)[C@@H]2C[C@H]2CCCC(F)(F)Cn2c(-c3nc4cc(C(=O)N[C@H]5CNCC[C@@H]5F)c(F)c(F)c4n3C3CC3)cc3ccc1nc32 [Example 189, 1-cyclopropyl-2-[(2~{R},5~{R},7~{R})-11,11-difluoro-2-methyl-4-oxo-3,13,19-triazatetracyclo[11.5.2.0^{5,7}.0^{16,20}]icosa-1(19),14,16(20),17-tetraen-14-yl]-6,7-difluoro-~{N}-[(3~{S},4~{S})-4-fluoro-3-piperidyl]benzimidazole-5-carboxamide]
163	C[C@H]1NC(=O)[C@H]2C[C@@H]2CCCCn2c(-c3nc4cc(C(=O)N[C@H]5CNCC[C@@H]5F)c(F)cc4n3C)cc3ccc1nc32 [Example 499, 6-fluoro-~{N}-[(3~ {S},4~{S})-4-fluoro-3-piperidyl]-1-methyl-2-[(2~{R},7~{S})-2-methyl-4-oxo-3,12,18-triazatetracyclo [10.5.2.0^{5,7}.0^{15,19}]nonadeca-1(18), 13,15(19),16-tetraen-13-yl]benzimidazole-5-carboxamide]
16	C[C@@H]1[C@H](N)CCCN1C(=O)c1cc(F)c2c(c1)nc(-c1cc3ccc4nc3n1CC(F)(F)CCC[C@@H]1C[C@H]1C(=O)N[C@@H]4C)n2[C@H]1C[C@@H]1F [Example 835, (2~{R},5~{R},7~{R})-14-[5-[(2~{R},3~{R})-3-amino-2-methyl-piperidine-1-carbonyl]-7-fluoro-1-[(1~{S},2~{S})-2-fluorocyclopropyl]benzimidazol-2-yl]-11,11-difluoro-2-methyl-3,13,19-triazatetracyclo[11.5.2.0^ {5,7}.0^{16,20}] icosa-1(19),14,16(20), 17-tetraen-4-one]
31	C[C@H]1NC(=O)[C@@H]2C[C@H]2CCCC(F)(F)Cn2c(-c3nc4cc(C(=O)N5C[C@H](N)[C@@H]6CC[C@H]5C6)cc(F)c4n3[C@@H]3C[C@H]3C(F)F)cc3ccc1nc32 [Example 454, (2~{R},5~{R},7~{R})-14-[5-[(1~{S),4~{R},5~{R})-4-amino-2-azabicycło[3.2.1]octane-2-carbonyl]-1-[(1~{R},2~{R})-2-(difluoromethyl)cyclopropyl]-7-fluoro-benzimidazol-2-yl]-11,11-difluoro-2-methyl-3,13,19-triazatetracyclo[11.5.2.0^{5,7}.0^{16,20}] icosa-1(19),14,16(20),17-tetraen-4-one]
48	COc1cc(C(=O)N2C[C@H]3CC[C@@H]2[C@@H]3N)cc2nc(-c3cc4ccc5nc4n3CC(F)(F)CCC[C@@H]3C[C@H]3C(=O)N[C@@H]5C)n(C)c12 [Example 853, (2~{R},5~{R},7~{R})-14-[5-[(1~{R},4~{R},7~{R})-7-amino-2-azabicyclo[2.2.1]heptane-2-carbonyl]-7-methoxy-1-methyl-benzimidazol-2-yl]-11,11-difluoro-2-methyl-3,13,19-triazatetracyclo[11.5.2.0^ {5,7}.0^{16,20}]icosa-1(19), 14,16(20),17-tetraen-4-one]
